Test results reported in PubChem BioAssay AID282 (DTP/NCI, 2004).
Where “and” joins values, the source holds several entries; their conditions need not be identical. Equal entries are not always repeated. Inconclusive results and toxic doses are left out.

Tested on: BDF1 mice, L1210 terephthalanilide-resistant leukemia ip, survival T/C
Assay: NCI In Vivo Anticancer Drug Screen. Data for tumor model L1210 Leukemia resistant to A Terephthalanilide; NSC 38280 (intraperitoneal) in B6D2F1 (BDF1) mice
Settings: endpoint: mean survival time, higher = longer survival
Description: The antitumor activity of compounds was measured in mice bearing transplantable tumors. Survival or tumor size were measured and the results are expressed as the measurement made in the treated group (T) divided by the measurement made in the vehicle treated control group (C). The tumor model used in this assay is L1210 Leukemia resistant to A Terephthalanilide; NSC 38280 (intraperitoneal) in B6D2F1 (BDF1) mice

[1] = dose: 5.0 mg/kg/injection, schedule: Q01DX010 (ip), vehicle: saline
[2] = dose: 12.5 mg/kg/injection, schedule: Q01DX010 (ip), vehicle: saline
[3] = dose: 25.0 mg/kg/injection, schedule: Q01DX010 (ip), vehicle: saline
[4] = dose: 50.0 mg/kg/injection, schedule: Q01DX010 (ip), vehicle: saline
[5] = dose: 75.0 mg/kg/injection, schedule: Q01DX Z (ip), vehicle: saline
[6] = dose: 100.0 mg/kg/injection, schedule: Q01DX010 (ip), vehicle: saline
[7] = dose: 100.0 mg/kg/injection, schedule: Q01DX Z (ip), vehicle: saline
[8] = dose: 20.0 mg/kg/injection, schedule: Q01DX010 (ip), vehicle: saline

CN(C)c1ccc(/C=C\c2ccnc3ccccc23)cc1
T/C [1]: 98 % of control | T/C (dose: 8.0 mg/kg/injection, schedule: Q01DX010 (ip), vehicle: saline): 100 % of control | T/C (dose: 12.0 mg/kg/injection, schedule: Q01DX010 (ip), vehicle: saline): 100 % of control | T/C (dose: 18.0 mg/kg/injection, schedule: Q01DX010 (ip), vehicle: saline): 92 % of control and 95 % of control | T/C (dose: 18.75 mg/kg/injection, schedule: Q01DX Z (ip), vehicle: carboxymethylcellulose (CMC)): 101 % of control | T/C (dose: 27.0 mg/kg/injection, schedule: Q01DX010 (ip), vehicle: saline): 89 % of control | T/C (dose: 37.5 mg/kg/injection, schedule: Q01DX Z (ip), vehicle: carboxymethylcellulose (CMC)): 95 % of control | T/C (dose: 50.0 mg/kg/injection, schedule: Q01DX Z (ip), vehicle: carboxymethylcellulose (CMC)): 90 % of control

COS(C)(=O)=O
T/C [2]: 93 % of control | T/C [3]: 101 % of control | T/C (dose: 25.0 mg/kg/injection, schedule: Q01DX Z (ip), vehicle: saline): 95 % of control | T/C [4]: 102 % of control | T/C (dose: 50.0 mg/kg/injection, schedule: Q01DX Z (ip), vehicle: saline): 101 % of control | T/C [5]: 106 % of control | T/C [6]: 100 % of control | T/C [7]: 106 % of control

CC(=O)O[C@]1(C(C)=O)CC[C@H]2[C@@H]3C[C@H](C)C4=CC(=O)C=C[C@]4(C)[C@@]3(F)[C@@H](O)C[C@@]21C
T/C (dose: 12.5 mg/kg/injection, schedule: Q01DX010 (sc), vehicle: steriod suspending solution): 102 % of control | T/C (dose: 25.0 mg/kg/injection, schedule: Q01DX010 (sc), vehicle: steriod suspending solution): 98 % of control | T/C (dose: 50.0 mg/kg/injection, schedule: Q01DX010 (sc), vehicle: steriod suspending solution): 98 % of control | T/C (dose: 50.0 mg/kg/injection, schedule: Q01DX Z (sc), vehicle: steriod suspending solution): 102 % of control | T/C (dose: 75.0 mg/kg/injection, schedule: Q01DX Z (sc), vehicle: steriod suspending solution): 104 % of control | T/C (dose: 100.0 mg/kg/injection, schedule: Q01DX010 (sc), vehicle: steriod suspending solution): 91 % of control | T/C (dose: 100.0 mg/kg/injection, schedule: Q01DX Z (sc), vehicle: steriod suspending solution): 102 % of control | T/C (dose: 150.0 mg/kg/injection, schedule: Q01DX Z (sc), vehicle: steriod suspending solution): 102 % of control

O=NN(CCCl)C(=O)NCCCl
T/C (dose: 6.25 mg/kg/injection, schedule: Q01DX010 (ip), vehicle: saline): 224 % of control | T/C [2]: 105 % of control | T/C [3]: 89 % of control

CC1CCOS(=O)O1 (stereo not drawn)
T/C (dose: 10.0 mg/kg/injection, schedule: Q01DX010 (ip), vehicle: saline): 95 % of control | T/C [8]: 86 % of control | T/C (dose: 37.5 mg/kg/injection, schedule: Q01DX Z (ip), vehicle: saline): 112 % of control | T/C (dose: 40.0 mg/kg/injection, schedule: Q01DX010 (ip), vehicle: saline): 87 % of control | T/C [5]: 120 % of control | T/C [7]: 103 % of control | T/C (dose: 150.0 mg/kg/injection, schedule: Q01DX Z (ip), vehicle: saline): 87 % of control

C[n+]1ccc(NC(=O)c2ccc(NC(=O)c3cccc(C(=O)Nc4ccc(C(=O)Nc5cc[n+](C)cc5)cc4)c3)cc2)cc1
T/C [1]: 87 % of control | T/C [8]: 116 % of control

CNc1nc(Nc2ccc(C3=NCCN3)cc2)nc(Nc2ccc(C3=NCCN3)cc2)n1
T/C (dose: 13.3 mg/kg/injection, schedule: Q01DX010 (ip), vehicle: saline): 100 % of control | T/C [8]: 94 % of control | T/C (dose: 30.0 mg/kg/injection, schedule: Q01DX010 (ip), vehicle: saline): 99 % of control | T/C (dose: 45.0 mg/kg/injection, schedule: Q01DX010 (ip), vehicle: saline): 97 % of control

Nc1nc(F)nc2c1ncn2C1OC(CO)C(O)C1O (stereo not drawn)
T/C (dose: 0.75 mg/kg/injection, schedule: Q01DX Z (ip), vehicle: saline): 111 % of control | T/C (dose: 1.5 mg/kg/injection, schedule: Q01DX Z (ip), vehicle: saline): 108 % of control | T/C (dose: 3.0 mg/kg/injection, schedule: Q01DX Z (ip), vehicle: saline): 114 % of control | T/C (dose: 6.0 mg/kg/injection, schedule: Q01DX Z (ip), vehicle: saline): 101 % of control

CS(=O)(=O)OCCC(=O)N1CCN(C(=O)CCOS(C)(=O)=O)CC1
T/C [2]: 106 % of control and 109 % of control | T/C [3]: 120 % of control | T/C [4]: 107 % of control | T/C [6]: 120 % of control
